According to patent publication US11014934B2, “Antiseptic drug” (AO “TATKHIMFARMPREPARATY”, priority 2017, dated 2021):

What was measured:
clinical staphylococci = experiment: MIC screening, summary for clinical staphylococci; assay type: cell-based; conditions: range over clinical staphylococci, one strain excepted
Method: (§1) A comparative assessment of the spectrum of antibacterial action was carried out on archival and clinical strains of gram-positive and gram-negative microorganisms in accordance with the [Opredeleniye chuvstvitel'nosti mikroorganizmov k antibakterial'nym preparatam (Metodicheskiye ukazaniya MUK 4.2.1890-04). Utverzhdeny i vvedeny v deystviye Glavnym gosudarstvennym sanitarnym vrachom Rossiyskoy Federatsii G. G. Onishchenko 04.03.2004 g. Determination of the sensitivity of microorganisms to antibacterial drugs (Guidelines MUK 4.2.1890-04). Approved and put into effect by the Chief State Sanitary Doctor of the Russian Federation G. G. Onishchenko on 4 Mar. 2004].
(§2) The value of the minimum inhibitory concentration (MIC) was determined by the method of serial dilutions on Müller-Hinton broth using 96-well sterile plates. […] The growth of cultures was assessed visually, comparing the growth of microorganisms in the presence of test compounds with the growth of culture without them. […] The first lowest concentration of the studied substance (from a series of consecutive dilutions), where bacterial growth is not visually determined, is considered to be the minimum inhibitory concentration (MIC). MIC was determined by the method of serial dilutions in broth with increment=2, so the differences of neighboring dilutions are not considered to be significant. […]

clinical enterococci = experiment: MIC screening, summary for clinical enterococci; assay type: cell-based; conditions: range over clinical enterococci
Method: as §1, §2

E. coli in the biofilm = experiment: Antibacterial activity against cells immersed in a biofilm matrix (CFU, drop plate); assay type: cell-based
Method: (§3) To determine the effectiveness of the antibiotic against bacteria in […], bacteria were grown in Basal medium for 3 days at a temperature of 37° C. without swinging to obtain a dense biofilm [A. R Kayumov, Khakimullina E., Sharafutdinov I, Trizna E., Latypova L., Lien Thi, Margulis A., Bogachev M, Kurbangalieva A. Inhibition of biofilm formation in Bacillus subtilis by new halogenated furanoses. J. Antibiotics.—2014.—V. 68.—No 5.—P. 297-301.]. Then the biofilm was washed with a sterile 0.9% NaCl solution and fresh sterile medium was poured. Antiseptics were added to concentrations (1-16)×MBC (minimum bactericidal concentration) and incubated for 24 hours. Then the culture fluid was removed from the wells, washed once with 0.9% NaCl solution to remove non-adherent cells, and cell viability in biofilms was evaluated by counting CFU by Drop plate analysis [B. Herigstad, M Hamilton, J. Heersink How to optimize the drop plate method for enumerating bacteria. J Microbiol Methods.—2001.—V. 44.—P. 121-129]. To do this, the biofilm was mechanically removed from the surface and homogenized in 0.9% NaCl by pipetting and ultrasonic treatment. Then, serial 10-fold dilutions of the bacterial suspension in 0.9% NaCl were prepared, and 5 μI of each suspension were transferred to plates with dense nutrient medium. CFU was counted from drops containing 5-10 colonies.
(§4) The results of the study of antimicrobial activity against cells of the studied strains immersed in the biofilm matrix, in comparison with miramistin and benzalkonium chloride, are presented in FIGS. 1 and 2.

[1] = system: gram-positive microorganisms in the biofilm; experiment: as above; assay type: cell-based
Method: as §3, §4

[2] = Acute toxicity in mice after intragastric administration; assay type: in vivo; conditions: both sexes, mouse, in vivo, po; Mice CD-1, intragastric administration; read-out: LD50 (95% confidence interval)
Method: (§5) The study was performed on mice of the CD-1 (ICR) line (6-8 weeks, weight not less than 18 g) of both sexes. […] Mice administered doses were 3000 mg/kg, 2000 mg/kg, 1000 mg/kg, 500 mg/kg and 50 mg/kg.

[3] = system: mice of the CD-1 (ICR) line; experiment: as above; assay type: in vivo
Method: as §5

[4] = system: Cells of a light cow embryo (LCE); experiment: State of the LCE cell monolayer with the drug without the virus; assay type: cell-based
Method: Cells of a light cow embryo (LCE) are obtained from the Federal State Budgetary Institution “All-Russian Institute of Experimental Veterinary Medicine”, Moscow. Bovine rhinotracheitis virus (herpes virus family), vaccine strain “TK-A (VIEV)-V2” was obtained from the Federal State Budgetary Institution “All-Russian Institute of Experimental Veterinary Medicine”, Moscow.
The virus was incubated in the presence of compound I in a culture medium at 37° C. for one hour at various concentrations; miramistin and benzalkonium chloride served as control preparations. After incubation of the virus with substances, it was added to the cell culture, which was then incubated at 37° C., 5% CO2 for 72 hours.
Evaluation of the cytopathogenic effect was carried out visually by the state of the cell monolayer as compared with the controls (virus without incubation with the drug, the studied drug concentrations without the virus). The virus titer was calculated using the method of Reed-Muench in the modification of Ashmarin and expressed in Ig TCD50/ml.

[5] = both, CD-1 (ICR), mouse, in vivo

Row | SMILES | MIC (clinical staphylococci) [µg/mL] | MIC for clinical enterococci (clinical enterococci) [µg] | activity in the biofilm compared with comparison antiseptics (E. coli in the biofilm) | higher activity compared to miramistin and benzalkonium chloride ([1]; same decrease of CFU at lower excess of MBC) [fold] | LD50 [2] [mg/kg] | hazard class in accordance with GOST 12.1.007-76 ([3]; acute toxicity, oral, mice) | toxicity class according to the Globally Harmonized System (GOST 32644-2014) ([3]; acute toxicity, oral, mice) [th toxicity class] | LD16 [3, 5] [mg/kg] | LD86 [3, 5] [mg/kg] | Number of died animals in the group ([3]; both, CD-1 (ICR), mouse, in vivo, 50 mg/kg) | Number of died animals in the group ([3]; both, CD-1 (ICR), mouse, in vivo, 500 mg/kg) | Number of died animals in the group ([3]; both, CD-1 (ICR), mouse, in vivo, 1000 mg/kg) | Number of died animals in the group ([3]; both, CD-1 (ICR), mouse, in vivo, 2000 mg/kg) | Number of died animals in the group ([3]; both, CD-1 (ICR), mouse, in vivo, 3000 mg/kg) | less active than benzalkonium chloride [1] [times] | destruction of the monolayer, drug without the virus ([4]; 50 μg/ml) | destruction of the monolayer, drug without the virus ([4]; 100 μg/ml) | destruction of the monolayer, drug without the virus ([4]; 150 μg/ml) | destruction of the monolayer, drug without the virus ([4]; 200 μg/ml)
1 | CCCCCCCCCCCC[N+](C)(C)Cc1cnc(C[N+](C)(C)CCCCCCCCCCCC)c2c1COC(CC)O2 (stereo not shown) [Compound I, 5,8-(Bis(methylene (N, N-dimethyl-N-dodecylammonium))-2-ethyl-4H-[1,3]dioxino [4,5-c]pyridiniumdichloride] | 1 to 8 | 0.03 to 4 | the same activity as miramistine and benzalconium chloride | 2 | 1710 | 3rd class of moderately hazardous harmful substances | 4 | 788 | 2623 | 0/6 | 0/6 | 3/6 | 5/10 | 4/4 | – | – | – | – | –
2 | CCCCCCCCCCCCCC(=O)NCCC[N+](C)(C)Cc1ccccc1.O.[Cl-] [Miramistin, benzyldimethyl [3-(myristoylamino)propyl]-ammonium chloride monohydrate] | – | – | – | – | – | – | – | – | – | – | – | – | – | – | 2 | − (−0-10% destruction of the monolayer) | − (−0-10% destruction of the monolayer) | − (−0-10% destruction of the monolayer) | − (−0-10% destruction of the monolayer)
